According to patent US9402398B2, “Herbicidal compounds” (SYNGENTA PARTICIPATIONS AG, priority 2012, dated 2016):

What was measured:
Assay type in all cases: in vivo
[1] = test system: Alopecurus myosuroides (ALOMY); assay: Herbicidal glasshouse test, post-emergence; details: post-emergence (sprayed after 8 days cultivation), 1000 g/h, evaluated after 13 days
Description: (§1) Seeds of a variety of test species are sown in standard soil in pots (Alopecurus myosuroides (ALOMY), Setaria faberi (SETFA), Echinochloa crus-galli (ECHCG), Solanum nigrum (SOLNI), Amaranthus retoflexus (AMARE), Ipomoea hederacea (IPOHE)). After cultivation for one day (pre-emergence) or after 8 days cultivation (post-emergence) under controlled conditions in a glasshouse (at 24/16° C., day/night; 14 hours light; 65% humidity), the plants are sprayed with an aqueous spray solution derived from the formulation of the technical active ingredient in acetone/water (50:50) solution containing 0.5% Tween 20 (polyoxyethelyene sorbitan monolaurate, CAS RN 9005-64-5). Compounds are applied at 1000 g/h. The test plants are then grown in a glasshouse under controlled conditions in a glasshouse (at 24/16° C., day/night; 14 hours light; 65% humidity) and watered twice daily. After 13 days for pre and post-emergence, the test is evaluated for the percentage damage caused to the plant. The biological activities are shown in the following table on a five point scale (5=80-100%; 4=60-79%; 3=40-59%; 2=20-39%; 1=0-19%).

[2] = test system: Amaranthus retoflexus (AMARE); assay: Herbicidal glasshouse test, post-emergence; details: post-emergence (sprayed after 8 days cultivation), 1000 g/h, evaluated after 13 days
Description: as §1

[3] = test system: Echinochloa crus-galli (ECHCG); assay: Herbicidal glasshouse test, post-emergence; details: post-emergence (sprayed after 8 days cultivation), 1000 g/h, evaluated after 13 days
Description: as §1

[4] = test system: Ipomoea hederacea (IPOHE); assay: Herbicidal glasshouse test, post-emergence; details: post-emergence (sprayed after 8 days cultivation), 1000 g/h, evaluated after 13 days
Description: as §1

[5] = test system: Setaria faberi (SETFA); assay: Herbicidal glasshouse test, post-emergence; details: post-emergence (sprayed after 8 days cultivation), 1000 g/h, evaluated after 13 days
Description: as §1

[6] = test system: Solanum nigrum (SOLNI); assay: Herbicidal glasshouse test, post-emergence; details: post-emergence (sprayed after 8 days cultivation), 1000 g/h, evaluated after 13 days
Description: as §1

[7] = test system: Alopecurus myosuroides (ALOMY); assay: Herbicidal glasshouse test, pre-emergence; details: pre-emergence (sprayed after cultivation for one day), 1000 g/h, evaluated after 13 days
Description: as §1

[8] = test system: Amaranthus retoflexus (AMARE); assay: Herbicidal glasshouse test, pre-emergence; details: pre-emergence (sprayed after cultivation for one day), 1000 g/h, evaluated after 13 days
Description: as §1

[9] = test system: Echinochloa crus-galli (ECHCG); assay: Herbicidal glasshouse test, pre-emergence; details: pre-emergence (sprayed after cultivation for one day), 1000 g/h, evaluated after 13 days
Description: as §1

[10] = test system: Ipomoea hederacea (IPOHE); assay: Herbicidal glasshouse test, pre-emergence; details: pre-emergence (sprayed after cultivation for one day), 1000 g/h, evaluated after 13 days
Description: as §1

[11] = test system: Setaria faberi (SETFA); assay: Herbicidal glasshouse test, pre-emergence; details: pre-emergence (sprayed after cultivation for one day), 1000 g/h, evaluated after 13 days
Description: as §1

[12] = test system: Solanum nigrum (SOLNI); assay: Herbicidal glasshouse test, pre-emergence; details: pre-emergence (sprayed after cultivation for one day), 1000 g/h, evaluated after 13 days
Description: as §1

Compound	percentage damage caused to the plant, five point scale, POST Application ALOMY [1]	percentage damage caused to the plant, five point scale, POST Application AMARE [2]	percentage damage caused to the plant, five point scale, POST Application ECHCG [3]	percentage damage caused to the plant, five point scale, POST Application IPOHE [4]	percentage damage caused to the plant, five point scale, POST Application SETFA [5]	percentage damage caused to the plant, five point scale, POST Application SOLNI [6]	percentage damage caused to the plant, five point scale, PRE Application ALOMY [7]	percentage damage caused to the plant, five point scale, PRE Application AMARE [8]	percentage damage caused to the plant, five point scale, PRE Application ECHCG [9]	percentage damage caused to the plant, five point scale, PRE Application IPOHE [10]	percentage damage caused to the plant, five point scale, PRE Application SETFA [11]	percentage damage caused to the plant, five point scale, PRE Application SOLNI [12]
Cc1cc(C(=O)Nc2nnnn2C)c(=O)n(-c2cc(Cl)ccc2C)n1 [Compound 1.019]	5 (5=80-100%)	5 (5=80-100%)	5 (5=80-100%)	5 (5=80-100%)	5 (5=80-100%)	5 (5=80-100%)	5 (5=80-100%)	5 (5=80-100%)	5 (5=80-100%)	5 (5=80-100%)	5 (5=80-100%)	5 (5=80-100%)
Cc1cc(C(=O)Nc2nnnn2C)c(=O)n(-c2ccccc2C)n1 [Compound 1.003]	4 (4=60-79%)	5 (5=80-100%)	5 (5=80-100%)	5 (5=80-100%)	3 (3=40-59%)	5 (5=80-100%)	2 (2=20-39%)	5 (5=80-100%)	5 (5=80-100%)	4 (4=60-79%)	3 (3=40-59%)	4 (4=60-79%)
Cc1cc(C(=O)Nc2nnnn2C)c(=O)n(-c2ccc(F)c(F)c2)n1 [Compound 1.013]	5 (5=80-100%)	5 (5=80-100%)	5 (5=80-100%)	5 (5=80-100%)	5 (5=80-100%)	5 (5=80-100%)	5 (5=80-100%)	5 (5=80-100%)	5 (5=80-100%)	4 (4=60-79%)	5 (5=80-100%)	5 (5=80-100%)
COc1ccccc1-n1nc(C)cc(C(=O)Nc2nnnn2C)c1=O [Compound 1.004]	5 (5=80-100%)	5 (5=80-100%)	5 (5=80-100%)	5 (5=80-100%)	5 (5=80-100%)	5 (5=80-100%)	5 (5=80-100%)	5 (5=80-100%)	5 (5=80-100%)	4 (4=60-79%)	5 (5=80-100%)	5 (5=80-100%)
Cc1cc(C(=O)Nc2nnnn2C)c(=O)n(-c2ccc(F)cc2Br)n1 [Compound 1.020]	5 (5=80-100%)	5 (5=80-100%)	5 (5=80-100%)	5 (5=80-100%)	5 (5=80-100%)	5 (5=80-100%)	5 (5=80-100%)	5 (5=80-100%)	5 (5=80-100%)	5 (5=80-100%)	5 (5=80-100%)	5 (5=80-100%)
CCc1ccc(-n2nc(C)cc(C(=O)Nc3nnnn3C)c2=O)cc1 [Compound 1.011]	5 (5=80-100%)	5 (5=80-100%)	5 (5=80-100%)	5 (5=80-100%)	5 (5=80-100%)	5 (5=80-100%)	5 (5=80-100%)	5 (5=80-100%)	5 (5=80-100%)	4 (4=60-79%)	5 (5=80-100%)	5 (5=80-100%)
Cc1cc(C(=O)Nc2nnnn2C)c(=O)n(-c2cccc(C#N)c2)n1 [Compound 1.018]	5 (5=80-100%)	5 (5=80-100%)	5 (5=80-100%)	5 (5=80-100%)	5 (5=80-100%)	5 (5=80-100%)	5 (5=80-100%)	5 (5=80-100%)	5 (5=80-100%)	5 (5=80-100%)	5 (5=80-100%)	5 (5=80-100%)
Cc1cc(C(=O)Nc2nnnn2C)c(=O)n(-c2ccc(C#N)cn2)n1 [Compound 1.022]	5 (5=80-100%)	5 (5=80-100%)	5 (5=80-100%)	4 (4=60-79%)	5 (5=80-100%)	5 (5=80-100%)	–	–	–	–	–	–
Cc1cc(C(=O)Nc2nnnn2C)c(=O)n(-c2ccc(F)cc2)n1 [Compound 1.014]	5 (5=80-100%)	5 (5=80-100%)	5 (5=80-100%)	5 (5=80-100%)	5 (5=80-100%)	5 (5=80-100%)	5 (5=80-100%)	5 (5=80-100%)	5 (5=80-100%)	4 (4=60-79%)	5 (5=80-100%)	5 (5=80-100%)
Cc1cc(C(=O)Nc2nnnn2C)c(=O)n(-c2ccc(Cl)cc2)n1 [Compound 1.012]	5 (5=80-100%)	5 (5=80-100%)	5 (5=80-100%)	5 (5=80-100%)	5 (5=80-100%)	5 (5=80-100%)	5 (5=80-100%)	5 (5=80-100%)	5 (5=80-100%)	3 (3=40-59%)	5 (5=80-100%)	5 (5=80-100%)
